Drawing on ChEMBL document CHEMBL5715954, “Silencing c-Myc translation as a therapeutic strategy through targeting PI3Kδ and CK1ε in hematological malignancies” (Blood, 2017), this text covers Activity for three compounds.

Parameters in all cases: scale not given: the % may be the effect or the level left
In assay [1] the target is T1, Serine/threonine-protein kinase Nek8 (Homo sapiens) (UniProt Q86SG6).
T1 sequence (whole entry): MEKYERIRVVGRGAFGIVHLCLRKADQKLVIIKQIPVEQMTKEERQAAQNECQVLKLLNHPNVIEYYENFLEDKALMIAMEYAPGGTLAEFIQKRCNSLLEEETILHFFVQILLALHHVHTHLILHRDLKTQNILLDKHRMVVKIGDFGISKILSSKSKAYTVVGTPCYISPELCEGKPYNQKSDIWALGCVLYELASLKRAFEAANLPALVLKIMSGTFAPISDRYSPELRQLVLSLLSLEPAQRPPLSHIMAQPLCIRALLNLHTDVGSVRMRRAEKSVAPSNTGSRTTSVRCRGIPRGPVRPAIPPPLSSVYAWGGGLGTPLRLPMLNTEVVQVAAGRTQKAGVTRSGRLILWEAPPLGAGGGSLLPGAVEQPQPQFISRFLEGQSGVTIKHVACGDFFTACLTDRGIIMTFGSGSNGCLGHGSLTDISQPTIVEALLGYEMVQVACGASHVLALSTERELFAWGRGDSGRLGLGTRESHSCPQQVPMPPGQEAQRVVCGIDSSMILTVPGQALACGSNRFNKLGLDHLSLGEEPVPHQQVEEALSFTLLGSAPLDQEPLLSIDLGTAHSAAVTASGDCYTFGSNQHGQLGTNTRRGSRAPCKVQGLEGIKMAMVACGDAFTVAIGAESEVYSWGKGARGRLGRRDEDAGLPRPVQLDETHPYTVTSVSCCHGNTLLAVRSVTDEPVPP
Description: Inhibition of human NEK8 assessed as enzyme activity at 1 uM using myelin basic protein as substrate preincubated for 20 mins followed by [gamma-33P]-ATP addition and measured after 120 mins by radiometric Hot-SpotSM Kinase assay relative to control.

Assay [2] has as its target Calcium/calmodulin-dependent protein kinase kinase 2 (Homo sapiens) (UniProt Q96RR4). Put plainly: Inhibition of human CAMKK2 assessed as enzyme activity at 1 uM using myelin basic protein as substrate preincubated for 20 mins followed by [gamma-33P]-ATP addition and measured after 120 mins by radiometric Hot-SpotSM Kinase assay relative to control.
For assay [3], the target named is Serine/threonine-protein kinase N3 (Homo sapiens) (UniProt Q6P5Z2). Put plainly: Inhibition of human PKN3 assessed as enzyme activity at 1 uM using KKLNRTLSVA as substrate preincubated for 20 mins followed by [gamma-33P]-ATP addition and measured after 120 mins by radiometric Hot-SpotSM Kinase assay relative to control.
For assay [4], the target named is Maternal embryonic leucine zipper kinase (Homo sapiens) (UniProt Q14680). Description: Inhibition of human MELK assessed as enzyme activity at 1 uM using KKLNRTLSFAEPG as substrate preincubated for 20 mins followed by [gamma-33P]-ATP addition and measured after 120 mins by radiometric Hot-SpotSM Kinase assay relative to control.
Assay [5] concerns the target T2, Aurora kinase A (Homo sapiens) (UniProt O14965).
T2 sequence (whole entry): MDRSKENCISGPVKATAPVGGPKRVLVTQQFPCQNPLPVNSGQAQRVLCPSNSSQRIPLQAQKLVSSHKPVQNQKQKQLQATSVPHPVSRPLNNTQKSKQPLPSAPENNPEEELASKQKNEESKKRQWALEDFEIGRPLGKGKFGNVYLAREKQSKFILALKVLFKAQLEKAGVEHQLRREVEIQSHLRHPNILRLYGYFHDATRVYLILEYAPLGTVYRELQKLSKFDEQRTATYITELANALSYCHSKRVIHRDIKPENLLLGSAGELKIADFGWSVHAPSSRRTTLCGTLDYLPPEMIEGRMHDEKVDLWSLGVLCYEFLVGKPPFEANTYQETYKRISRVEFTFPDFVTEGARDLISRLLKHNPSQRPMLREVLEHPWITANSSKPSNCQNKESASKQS
Description: Inhibition of human Aurora A assessed as enzyme activity at 1 uM using H-LRRASLG as substrate preincubated for 20 mins followed by [gamma-33P]-ATP addition and measured after 120 mins by radiometric Hot-SpotSM Kinase assay relative to control.

For assay [6], the target named is Serine/threonine-protein kinase PLK2 (Homo sapiens) (UniProt Q9NYY3). Description: Inhibition of human PLK2 assessed as enzyme activity at 1 uM using casein as substrate preincubated for 20 mins followed by [gamma-33P]-ATP addition and measured after 120 mins by radiometric Hot-SpotSM Kinase assay relative to control.
Assay [7] has as its target Proto-oncogene tyrosine-protein kinase receptor Ret (Homo sapiens) (UniProt P07949). Put plainly: Inhibition of human RET assessed as enzyme activity at 1 uM using RRRRRRRRRRRVYSTDYYRLFNPS as substrate preincubated for 20 mins followed by [gamma-33P]-ATP addition and measured after 120 mins by radiometric Hot-SpotSM Kinase assay relative to control.

Serine/threonine-protein kinase N3 (Homo sapiens), sequence (Q6P5Z2 whole entry, looked up): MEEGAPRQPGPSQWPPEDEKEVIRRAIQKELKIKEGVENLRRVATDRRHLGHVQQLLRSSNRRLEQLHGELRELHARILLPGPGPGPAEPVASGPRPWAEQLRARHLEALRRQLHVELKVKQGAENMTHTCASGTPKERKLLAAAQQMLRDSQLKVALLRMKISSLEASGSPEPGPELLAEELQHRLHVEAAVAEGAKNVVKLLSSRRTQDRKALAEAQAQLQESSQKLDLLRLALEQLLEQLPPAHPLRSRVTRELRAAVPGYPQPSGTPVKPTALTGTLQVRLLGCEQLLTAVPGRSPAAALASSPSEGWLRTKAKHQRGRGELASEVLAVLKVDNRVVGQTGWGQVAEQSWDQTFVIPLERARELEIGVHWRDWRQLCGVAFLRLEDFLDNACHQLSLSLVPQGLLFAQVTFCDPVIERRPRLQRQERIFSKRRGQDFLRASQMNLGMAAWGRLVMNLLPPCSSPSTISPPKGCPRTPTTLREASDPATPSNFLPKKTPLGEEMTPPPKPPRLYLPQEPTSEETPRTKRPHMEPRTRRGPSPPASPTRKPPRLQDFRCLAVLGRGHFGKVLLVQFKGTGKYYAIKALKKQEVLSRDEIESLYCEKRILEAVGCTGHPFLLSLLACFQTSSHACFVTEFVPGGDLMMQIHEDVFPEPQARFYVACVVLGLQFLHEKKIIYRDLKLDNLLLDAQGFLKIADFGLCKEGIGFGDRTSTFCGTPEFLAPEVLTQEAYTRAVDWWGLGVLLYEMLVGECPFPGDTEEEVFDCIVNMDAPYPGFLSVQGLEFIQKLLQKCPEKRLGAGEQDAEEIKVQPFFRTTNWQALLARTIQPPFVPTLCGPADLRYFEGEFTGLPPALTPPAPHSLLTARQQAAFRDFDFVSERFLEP
Serine/threonine-protein kinase PLK2 (Homo sapiens), sequence (Q9NYY3 whole entry, looked up): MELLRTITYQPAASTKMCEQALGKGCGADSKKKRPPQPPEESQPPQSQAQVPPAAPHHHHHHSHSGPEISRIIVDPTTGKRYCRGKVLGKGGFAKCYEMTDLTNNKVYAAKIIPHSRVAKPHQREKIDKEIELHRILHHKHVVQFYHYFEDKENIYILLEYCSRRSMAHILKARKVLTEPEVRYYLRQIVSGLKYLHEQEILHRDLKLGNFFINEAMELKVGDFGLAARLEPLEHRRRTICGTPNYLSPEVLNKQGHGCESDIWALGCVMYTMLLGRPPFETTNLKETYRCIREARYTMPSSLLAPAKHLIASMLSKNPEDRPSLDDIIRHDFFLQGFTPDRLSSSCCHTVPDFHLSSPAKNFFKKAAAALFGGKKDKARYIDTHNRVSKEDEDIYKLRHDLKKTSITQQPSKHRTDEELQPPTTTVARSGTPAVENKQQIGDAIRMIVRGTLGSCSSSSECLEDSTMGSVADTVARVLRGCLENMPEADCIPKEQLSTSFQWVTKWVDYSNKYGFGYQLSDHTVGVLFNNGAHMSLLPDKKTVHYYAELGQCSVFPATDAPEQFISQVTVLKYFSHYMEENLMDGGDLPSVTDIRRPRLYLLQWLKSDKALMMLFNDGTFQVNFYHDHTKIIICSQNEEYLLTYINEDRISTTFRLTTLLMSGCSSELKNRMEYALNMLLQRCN
Calcium/calmodulin-dependent protein kinase kinase 2 (Homo sapiens), sequence (Q96RR4 2-588 limits assumed): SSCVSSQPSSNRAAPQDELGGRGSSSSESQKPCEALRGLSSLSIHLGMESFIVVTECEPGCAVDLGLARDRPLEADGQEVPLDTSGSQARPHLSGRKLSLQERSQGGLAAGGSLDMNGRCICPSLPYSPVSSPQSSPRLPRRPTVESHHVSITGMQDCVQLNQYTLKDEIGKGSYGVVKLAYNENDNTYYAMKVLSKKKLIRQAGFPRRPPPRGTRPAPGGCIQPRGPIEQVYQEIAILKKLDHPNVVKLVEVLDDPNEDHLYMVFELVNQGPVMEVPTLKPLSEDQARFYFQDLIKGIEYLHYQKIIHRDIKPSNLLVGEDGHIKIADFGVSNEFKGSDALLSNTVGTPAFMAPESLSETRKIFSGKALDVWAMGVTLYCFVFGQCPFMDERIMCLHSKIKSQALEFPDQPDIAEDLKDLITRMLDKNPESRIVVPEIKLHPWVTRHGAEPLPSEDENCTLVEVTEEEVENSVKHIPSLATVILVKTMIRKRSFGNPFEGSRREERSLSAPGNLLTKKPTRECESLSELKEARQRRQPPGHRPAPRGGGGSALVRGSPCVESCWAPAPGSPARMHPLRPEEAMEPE
Maternal embryonic leucine zipper kinase (Homo sapiens), sequence (Q14680 whole entry, looked up): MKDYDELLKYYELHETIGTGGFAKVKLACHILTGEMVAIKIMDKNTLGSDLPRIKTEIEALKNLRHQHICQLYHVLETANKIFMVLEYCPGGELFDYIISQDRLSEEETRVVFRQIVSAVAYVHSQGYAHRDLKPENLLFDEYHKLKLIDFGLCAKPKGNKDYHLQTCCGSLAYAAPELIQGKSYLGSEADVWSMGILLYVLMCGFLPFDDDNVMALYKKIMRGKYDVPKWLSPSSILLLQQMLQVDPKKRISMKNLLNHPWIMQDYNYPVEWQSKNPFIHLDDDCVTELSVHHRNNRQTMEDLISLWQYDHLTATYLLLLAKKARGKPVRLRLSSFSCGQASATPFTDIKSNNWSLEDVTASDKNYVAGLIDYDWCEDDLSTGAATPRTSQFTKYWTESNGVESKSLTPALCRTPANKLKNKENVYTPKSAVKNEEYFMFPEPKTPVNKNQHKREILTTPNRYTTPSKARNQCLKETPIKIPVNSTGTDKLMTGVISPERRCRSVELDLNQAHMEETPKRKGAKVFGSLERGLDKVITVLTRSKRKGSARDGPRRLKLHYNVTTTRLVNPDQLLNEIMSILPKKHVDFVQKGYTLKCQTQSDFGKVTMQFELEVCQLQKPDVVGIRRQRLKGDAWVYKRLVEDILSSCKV
Proto-oncogene tyrosine-protein kinase receptor Ret (Homo sapiens), sequence (P07949 whole entry): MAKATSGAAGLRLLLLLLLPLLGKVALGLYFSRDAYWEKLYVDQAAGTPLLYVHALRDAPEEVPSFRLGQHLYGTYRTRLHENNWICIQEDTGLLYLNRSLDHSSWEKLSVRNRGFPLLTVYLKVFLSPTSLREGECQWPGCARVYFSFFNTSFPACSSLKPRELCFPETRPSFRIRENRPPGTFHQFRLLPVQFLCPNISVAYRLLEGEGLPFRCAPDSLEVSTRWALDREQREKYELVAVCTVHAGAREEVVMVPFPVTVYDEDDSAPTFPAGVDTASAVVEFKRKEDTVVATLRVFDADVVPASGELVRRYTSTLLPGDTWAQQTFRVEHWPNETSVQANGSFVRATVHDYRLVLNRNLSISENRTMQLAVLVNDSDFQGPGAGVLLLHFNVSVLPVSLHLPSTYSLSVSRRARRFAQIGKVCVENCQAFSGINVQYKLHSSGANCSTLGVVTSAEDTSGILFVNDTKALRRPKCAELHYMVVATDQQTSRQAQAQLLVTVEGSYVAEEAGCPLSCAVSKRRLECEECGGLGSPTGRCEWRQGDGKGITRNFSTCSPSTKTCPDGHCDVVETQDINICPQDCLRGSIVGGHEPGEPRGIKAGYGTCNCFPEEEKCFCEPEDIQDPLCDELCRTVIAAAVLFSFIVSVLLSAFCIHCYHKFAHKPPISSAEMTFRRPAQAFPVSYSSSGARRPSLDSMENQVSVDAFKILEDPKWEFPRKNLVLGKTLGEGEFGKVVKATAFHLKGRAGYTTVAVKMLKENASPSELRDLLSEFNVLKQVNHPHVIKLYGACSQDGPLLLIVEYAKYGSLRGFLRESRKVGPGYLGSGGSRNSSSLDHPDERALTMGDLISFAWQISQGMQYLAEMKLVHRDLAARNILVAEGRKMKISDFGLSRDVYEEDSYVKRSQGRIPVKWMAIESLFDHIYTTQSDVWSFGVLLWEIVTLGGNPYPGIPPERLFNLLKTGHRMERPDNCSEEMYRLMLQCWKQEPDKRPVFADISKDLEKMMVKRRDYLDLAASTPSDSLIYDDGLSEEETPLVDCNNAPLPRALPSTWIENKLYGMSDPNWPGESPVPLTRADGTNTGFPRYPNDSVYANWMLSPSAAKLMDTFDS

Regarding `C[C@H](Nc1ncnc2nc[nH]c12)c1cc2cccc(Cl)c2c(=O)n1-c1ccccc1`, the Activity came to 95% in assay [1]; 96.6% in assay [2]; 101% in assay [3]; 94.5% in assay [4]; 96.8% in assay [5]; 98.6% in assay [6]. Moreover, in assay [7], the Activity turned out to be 97.7%.

On to `CC[C@H](Nc1ncnc2[nH]cnc12)c1nc2cccc(F)c2c(=O)n1-c1ccccc1`, for which the Activity in assay [1] came out at 94.3%; in assay [2] it was 106%; in assay [3], 97.8%; in assay [4] it was 93.6%; in assay [5], 104%; in assay [6], 102%. The Activity in assay [7] came to 98.6%.

For the compound `CC(C)Oc1ccc(-c2nn([C@@H](C)c3oc4ccc(F)cc4c(=O)c3-c3cccc(F)c3)c3ncnc(N)c23)cc1F` [UMBRALISIB], the Activity in assay [1] came out at 91%; in assay [2], 98.5%; in assay [3], 93.5%; in assay [4] it was 105%; in assay [5], 99.5%; in assay [6], 99.8%. Moreover, in assay [7], the Activity is 99.9%.
